Consider nine cell lines from the supplement of paper PMC10307832.

What all share (test): relative viability (nuclei count vs DMSO), 5 days (fraction); higher = more cells survive
Compound in the assay “VE-821 + Navitoclax”: CS(=O)(=O)c1ccc(-c2cnc(N)c(C(=O)Nc3ccccc3)n2)cc1 [VE-821] + CC1(C)CCC(c2ccc(Cl)cc2)=C(CN2CCN(c3ccc(C(=O)NS(=O)(=O)c4ccc(N[C@H](CCN5CCOCC5)CSc5ccccc5)c(S(=O)(=O)C(F)(F)F)c4)cc3)CC2)C1 [Navitoclax] (partner 0.5 µM)
The method, boiled down: (§1)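 Lung cancer cell lines in 1536-well plates were dosed by pin tool the day after seeding, either with one drug alone or with a fixed anchor-drug dose plus five library-drug doses (not always all listed) in √10 steps. After 5 days, cells were fixed and their nuclei stained in one step (final 0.05% Triton X-100, 1% formaldehyde, 1 ug/ml Hoechst), then counted on 4× images. Relative viability is the nuclei count in treated wells divided by that in vehicle wells. Values are medians of duplicate plates.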

Compound in the assay “Ruxolitinib + Navitoclax”: N#CC[C@H](C1CCCC1)n1cc(-c2ncnc3[nH]ccc23)cn1 [Ruxolitinib] + CC1(C)CCC(c2ccc(Cl)cc2)=C(CN2CCN(c3ccc(C(=O)NS(=O)(=O)c4ccc(N[C@H](CCN5CCOCC5)CSc5ccccc5)c(S(=O)(=O)C(F)(F)F)c4)cc3)CC2)C1 [Navitoclax] (partner 0.5 µM)
The essentials: as §1

Compound in the assay “Ruxolitinib + Tozasertib”: N#CC[C@H](C1CCCC1)n1cc(-c2ncnc3[nH]ccc23)cn1 [Ruxolitinib] + Cc1cc(Nc2cc(N3CCN(C)CC3)nc(Sc3ccc(NC(=O)C4CC4)cc3)n2)n[nH]1 [Tozasertib] (partner 0.1 µM)
The method, boiled down: as §1

Compound in the assay “Ruxolitinib + Alpelisib”: N#CC[C@H](C1CCCC1)n1cc(-c2ncnc3[nH]ccc23)cn1 [Ruxolitinib] + Cc1nc(NC(=O)N2CCC[C@H]2C(N)=O)sc1-c1ccnc(C(C)(C)C(F)(F)F)c1 [Alpelisib] (partner 2 µM)
The essentials:
as §1

Consider 201T, for which the relative viability with VE-821 + Navitoclax (first compound 0.08 µM) came out at 1.23; with VE-821 + Navitoclax (first compound 0.253 µM), 1.2; with VE-821 + Navitoclax (first compound 0.8 µM), 1.21; with VE-821 + Navitoclax (first compound 2.53 µM) it was 1.32; with VE-821 + Navitoclax (first compound 8 µM) it was 1.12; with Ruxolitinib + Navitoclax (first compound 0.08 µM), 1.25. For the same cell line, the relative viability was 1.31 with Ruxolitinib + Navitoclax (first compound 0.253 µM); 1.44 in the assay with Ruxolitinib + Navitoclax (first compound 0.8 µM); 1.48 with Ruxolitinib + Navitoclax (first compound 2.53 µM); 1.36 in the assay with Ruxolitinib + Navitoclax (first compound 8 µM); 1.11 with Ruxolitinib + Tozasertib (first compound 0.08 µM); 1.19 in the assay with Ruxolitinib + Tozasertib (first compound 0.253 µM). For the same cell line, the relative viability with Ruxolitinib + Tozasertib (first compound 0.8 µM) worked out at 1.17; in the assay with Ruxolitinib + Tozasertib (first compound 2.53 µM), 1.21; with Ruxolitinib + Tozasertib (first compound 8 µM), 1.11; with Ruxolitinib + Alpelisib (first compound 0.08 µM) it was 1.11; in the assay with Ruxolitinib + Alpelisib (first compound 0.253 µM), 1.11; in the assay with Ruxolitinib + Alpelisib (first compound 0.8 µM), 1.27. For the same cell line, the results for the relative viability with Ruxolitinib + Alpelisib (first compound 2.53 µM) and in the assay with Ruxolitinib + Alpelisib (first compound 8 µM) were 1.39 and 1.33, respectively.
Turning to A549, the relative viability worked out at 1.48 with VE-821 + Navitoclax (first compound 0.08 µM); 1.21 with VE-821 + Navitoclax (first compound 0.253 µM); 1.18 with VE-821 + Navitoclax (first compound 0.8 µM); 1.04 with VE-821 + Navitoclax (first compound 2.53 µM); 0.544 in the assay with VE-821 + Navitoclax (first compound 8 µM); 1.2 in the assay with Ruxolitinib + Navitoclax (first compound 0.08 µM). Besides, the relative viability with Ruxolitinib + Navitoclax (first compound 0.253 µM) came out at 1.16; with Ruxolitinib + Navitoclax (first compound 0.8 µM) it was 1.21; with Ruxolitinib + Navitoclax (first compound 2.53 µM), 0.961; with Ruxolitinib + Navitoclax (first compound 8 µM) it was 0.508; in the assay with Ruxolitinib + Alpelisib (first compound 0.08 µM), 0.775; with Ruxolitinib + Alpelisib (first compound 0.253 µM) it was 0.708. Besides, the relative viability was determined as 0.841 with Ruxolitinib + Alpelisib (first compound 0.8 µM), 0.574 with Ruxolitinib + Alpelisib (first compound 2.53 µM) and 0.495 with Ruxolitinib + Alpelisib (first compound 8 µM).
Regarding A-427, the relative viability with VE-821 + Navitoclax (first compound 0.08 µM) is 0.928; in the assay with VE-821 + Navitoclax (first compound 0.253 µM) it was 0.945; with VE-821 + Navitoclax (first compound 0.8 µM) it was 1.04; with VE-821 + Navitoclax (first compound 2.53 µM), 0.981; in the assay with VE-821 + Navitoclax (first compound 8 µM), 0.625; in the assay with Ruxolitinib + Navitoclax (first compound 0.08 µM), 1. Also, the relative viability with Ruxolitinib + Navitoclax (first compound 0.253 µM) is 0.939; with Ruxolitinib + Navitoclax (first compound 0.8 µM), 0.959; in the assay with Ruxolitinib + Navitoclax (first compound 2.53 µM), 0.917; with Ruxolitinib + Navitoclax (first compound 8 µM), 0.8; with Ruxolitinib + Tozasertib (first compound 0.08 µM) it was 0.232; with Ruxolitinib + Tozasertib (first compound 0.253 µM), 0.201. In addition, the relative viability with Ruxolitinib + Tozasertib (first compound 0.8 µM) was found to be 0.237; in the assay with Ruxolitinib + Tozasertib (first compound 2.53 µM), 0.184; with Ruxolitinib + Tozasertib (first compound 8 µM), 0.179; in the assay with Ruxolitinib + Alpelisib (first compound 0.08 µM), 1.09; in the assay with Ruxolitinib + Alpelisib (first compound 0.253 µM) it was 1.03; with Ruxolitinib + Alpelisib (first compound 0.8 µM) it was 1.07. Moreover, the relative viability with Ruxolitinib + Alpelisib (first compound 2.53 µM) is 1.06; with Ruxolitinib + Alpelisib (first compound 8 µM), 1.03.
Take ABC-1: the relative viability came out at 0.222 with Ruxolitinib + Tozasertib (first compound 0.253 µM); 0.155 with Ruxolitinib + Tozasertib (first compound 0.8 µM); 0.202 with Ruxolitinib + Tozasertib (first compound 2.53 µM); 0.201 in the assay with Ruxolitinib + Tozasertib (first compound 8 µM); 1.08 with Ruxolitinib + Alpelisib (first compound 0.08 µM); 1.09 in the assay with Ruxolitinib + Alpelisib (first compound 0.253 µM). For the same cell line, the results for the relative viability in the assay with Ruxolitinib + Alpelisib (first compound 0.8 µM), in the assay with Ruxolitinib + Alpelisib (first compound 2.53 µM) and in the assay with Ruxolitinib + Alpelisib (first compound 8 µM) were 1.17, 1.03 and 0.855, respectively.
On to BEN, for which the relative viability in the assay with VE-821 + Navitoclax (first compound 0.08 µM) was 0.0647; in the assay with VE-821 + Navitoclax (first compound 0.253 µM), 0.0527; with VE-821 + Navitoclax (first compound 0.8 µM), 0.059; with VE-821 + Navitoclax (first compound 2.53 µM), 0.0551; with VE-821 + Navitoclax (first compound 8 µM) it was 0.0693; in the assay with Ruxolitinib + Navitoclax (first compound 0.08 µM), 0.0601. Besides, the relative viability with Ruxolitinib + Navitoclax (first compound 0.253 µM) worked out at 0.0767; with Ruxolitinib + Navitoclax (first compound 0.8 µM), 0.0749; with Ruxolitinib + Navitoclax (first compound 2.53 µM), 0.0665; with Ruxolitinib + Navitoclax (first compound 8 µM), 0.0571; with Ruxolitinib + Tozasertib (first compound 0.08 µM), 0.486; with Ruxolitinib + Tozasertib (first compound 0.253 µM) it was 0.503. The relative viability turned out to be 0.552 with Ruxolitinib + Tozasertib (first compound 0.8 µM); 0.537 with Ruxolitinib + Tozasertib (first compound 2.53 µM); 0.453 with Ruxolitinib + Tozasertib (first compound 8 µM); 0.944 in the assay with Ruxolitinib + Alpelisib (first compound 0.08 µM); 0.965 with Ruxolitinib + Alpelisib (first compound 0.253 µM); 1.16 with Ruxolitinib + Alpelisib (first compound 0.8 µM). Further, the relative viability with Ruxolitinib + Alpelisib (first compound 2.53 µM) stood at 0.956; with Ruxolitinib + Alpelisib (first compound 8 µM), 1.08.
In the case of CAL-12T, the relative viability in the assay with VE-821 + Navitoclax (first compound 0.08 µM) was 1.21; with VE-821 + Navitoclax (first compound 0.253 µM), 1.26; in the assay with VE-821 + Navitoclax (first compound 0.8 µM) it was 1.22; in the assay with VE-821 + Navitoclax (first compound 2.53 µM), 1.05; in the assay with VE-821 + Navitoclax (first compound 8 µM), 1.1; with Ruxolitinib + Navitoclax (first compound 0.08 µM) it was 1.1. The relative viability is 1.23 with Ruxolitinib + Navitoclax (first compound 0.253 µM); 1.14 in the assay with Ruxolitinib + Navitoclax (first compound 0.8 µM); 1.15 with Ruxolitinib + Navitoclax (first compound 2.53 µM); 1.07 with Ruxolitinib + Navitoclax (first compound 8 µM); 0.348 with Ruxolitinib + Tozasertib (first compound 0.08 µM); 0.412 in the assay with Ruxolitinib + Tozasertib (first compound 0.253 µM). Also, the relative viability in the assay with Ruxolitinib + Tozasertib (first compound 0.8 µM) is 0.344; in the assay with Ruxolitinib + Tozasertib (first compound 2.53 µM), 0.313; in the assay with Ruxolitinib + Tozasertib (first compound 8 µM), 0.312; with Ruxolitinib + Alpelisib (first compound 0.08 µM), 1.26; in the assay with Ruxolitinib + Alpelisib (first compound 0.253 µM), 1.31; with Ruxolitinib + Alpelisib (first compound 0.8 µM), 1.25. In addition, the relative viability with Ruxolitinib + Alpelisib (first compound 2.53 µM) came out at 1.05; with Ruxolitinib + Alpelisib (first compound 8 µM), 0.78.
Calu-6: the relative viability with VE-821 + Navitoclax (first compound 0.08 µM) amounted to 0.845; in the assay with VE-821 + Navitoclax (first compound 0.253 µM), 0.828; with VE-821 + Navitoclax (first compound 0.8 µM), 0.791; in the assay with VE-821 + Navitoclax (first compound 2.53 µM), 0.648; with VE-821 + Navitoclax (first compound 8 µM), 0.35; in the assay with Ruxolitinib + Navitoclax (first compound 0.08 µM) it was 0.836. In addition, the relative viability worked out at 0.858 in the assay with Ruxolitinib + Navitoclax (first compound 0.253 µM); 0.862 in the assay with Ruxolitinib + Navitoclax (first compound 0.8 µM); 0.767 with Ruxolitinib + Navitoclax (first compound 2.53 µM); 0.294 in the assay with Ruxolitinib + Navitoclax (first compound 8 µM); 1.02 with Ruxolitinib + Alpelisib (first compound 0.08 µM); 1.03 in the assay with Ruxolitinib + Alpelisib (first compound 0.253 µM). For the same cell line, the relative viability came to 1.09 with Ruxolitinib + Alpelisib (first compound 0.8 µM), 0.851 with Ruxolitinib + Alpelisib (first compound 2.53 µM) and 0.673 with Ruxolitinib + Alpelisib (first compound 8 µM).
Take ChaGo-K-1: the relative viability is 0.929 in the assay with VE-821 + Navitoclax (first compound 0.08 µM); 1.06 with VE-821 + Navitoclax (first compound 0.253 µM); 1.22 with VE-821 + Navitoclax (first compound 0.8 µM); 1.03 with VE-821 + Navitoclax (first compound 2.53 µM); 0.594 with VE-821 + Navitoclax (first compound 8 µM); 0.861 with Ruxolitinib + Navitoclax (first compound 0.253 µM). Besides, the relative viability in the assay with Ruxolitinib + Navitoclax (first compound 0.8 µM) came to 0.796; in the assay with Ruxolitinib + Navitoclax (first compound 2.53 µM), 0.986; with Ruxolitinib + Navitoclax (first compound 8 µM), 0.734; with Ruxolitinib + Tozasertib (first compound 0.08 µM), 0.246; with Ruxolitinib + Tozasertib (first compound 0.253 µM), 0.243; with Ruxolitinib + Tozasertib (first compound 0.8 µM) it was 0.454. In addition, the relative viability came out at 0.176 with Ruxolitinib + Tozasertib (first compound 2.53 µM) and 0.195 in the assay with Ruxolitinib + Tozasertib (first compound 8 µM).
As to EBC-1, the relative viability is 0.44 with VE-821 + Navitoclax (first compound 0.08 µM); 0.412 with VE-821 + Navitoclax (first compound 0.253 µM); 0.399 with VE-821 + Navitoclax (first compound 0.8 µM); 0.254 with VE-821 + Navitoclax (first compound 2.53 µM); 0.221 with VE-821 + Navitoclax (first compound 8 µM); 0.372 with Ruxolitinib + Navitoclax (first compound 0.08 µM). Besides, the relative viability in the assay with Ruxolitinib + Navitoclax (first compound 0.253 µM) was 0.435; with Ruxolitinib + Navitoclax (first compound 0.8 µM), 0.402; with Ruxolitinib + Navitoclax (first compound 2.53 µM) it was 0.347; with Ruxolitinib + Navitoclax (first compound 8 µM), 0.237; with Ruxolitinib + Alpelisib (first compound 0.08 µM), 0.833; in the assay with Ruxolitinib + Alpelisib (first compound 0.253 µM), 0.889. The relative viability was determined as 0.997 with Ruxolitinib + Alpelisib (first compound 0.8 µM), 0.876 with Ruxolitinib + Alpelisib (first compound 2.53 µM) and 0.777 in the assay with Ruxolitinib + Alpelisib (first compound 8 µM).
